Consider 29 compounds from patent US20240415918A1, “Polypeptide and its use as a CCK receptor agonist/antagonist” (Centre for Regenerative Medicine & Health, Hong Kong …, priority 2021, published 2024).

In the assay the target is T1, CCK-B receptors (CHO-CCK) (Homo sapiens, UniProt P32239).
T1 construct: expressed in transfected cells; host or cells: CHO (CHO-CCK model cells)
T1 sequence (P32239 1-447): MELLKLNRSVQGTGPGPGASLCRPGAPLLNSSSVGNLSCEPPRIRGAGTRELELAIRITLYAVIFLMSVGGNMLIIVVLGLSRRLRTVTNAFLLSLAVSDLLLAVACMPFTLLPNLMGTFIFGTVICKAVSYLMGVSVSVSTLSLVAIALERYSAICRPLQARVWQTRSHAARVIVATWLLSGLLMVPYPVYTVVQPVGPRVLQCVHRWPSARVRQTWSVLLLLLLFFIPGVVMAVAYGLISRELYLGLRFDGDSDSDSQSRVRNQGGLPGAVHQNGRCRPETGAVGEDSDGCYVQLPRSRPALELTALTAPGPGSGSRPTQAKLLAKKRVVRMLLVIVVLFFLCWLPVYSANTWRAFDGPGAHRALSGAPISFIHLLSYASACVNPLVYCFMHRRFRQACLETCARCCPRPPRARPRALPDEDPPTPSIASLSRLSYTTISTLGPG
In words: Calcium flux (Fluo-8) agonist test on CHO-CCK model cells. It is filed as cell-based. To be noted: for Agonistic Activity (%) at 10 μM: compound at 10 μM, percentage of signal of 20 nM CCK8 alone. As for the experimental part: • To detect changes in intracellular calcium ion concentration after the compound acts on model cells containing CCK-B receptors (CHO-CCK).
• 1. The compound was formulated to a 10 mM mother liquor with DMSO, and then diluted into a series of 9 concentrations with a 3-fold gradient to form a 1000× stock solution.
2.1 Agonist • The compound stock solution was subjected to 200-fold dilution with HHBS buffer to form a 5× working solution.
• 1. Plate CHO-CCK cells in a 96-well plate with media containing 1% FBS, 30,000 cells/well/100 μL, and incubate overnight at 37° C. • 2. Prepare 1×Fluo-8 analysis buffer: mix 9 mL of HHBS, 1 mL of 10× Pluronic F127 Plus and 20 μL of Fluo-8 thoroughly for later use. • 3. Add Fluo-8 dye working solution to the cell plate, 100 μL/well. First incubate in a 37° C. incubator for 30 min, and then take it out and incubate at room temperature in the dark for 30 min. • 4. In the process of incubating cells, the compounds to be detected were prepared with HHBS. • 5.
The agonism/antagonism EC50 of the compound can be obtained by plotting the fitting curve with the agonism/antagonism percentage as Y-axis and the concentration of the compound as X-axis.
(In general: Calcium flux is commonly read through the fluorescence of an indicator in the cells.)

Setting [1] is: CHO-CCK cells, compound alone, 100% = 20 nM CCK8.
Where [2] appears, read: CHO-CCK cells, Fluo-8 calcium flux, 100% control = 20 nM CCK8.

Where a SMILES comes first, the peptide text is derived from it. Where no end group is shown, it is not given here. [ ]: non-standard residue; d: D form. The star is where a group is joined. NMeW = CN[C@@H](Cc1c[nH]c2ccccc12)C(=O)O; Phe(3-Br) = N[C@@H](Cc1cccc(Br)c1)C(=O)O; Fmoc = O=C(OCC1c2ccccc2-c2ccccc21)*; Nle = CCCC[C@H](N)C(=O)O

For `COC(=O)C[C@H](NC(=O)[C@H](CCS(C)(=O)=O)NC(=O)[C@H](N)Cc1c[nH]c2ccccc12)C(=O)N[C@@H](Cc1cc(F)c(F)c(F)c1)C(N)=O` [HT-142, D-Trp-Met(O2)-Asp(Ome)-Phe(3,4,5-TriF)-NH2], the “Agonistic Activity (%) at 10 μM” value came out at 0.79%.
`CS(=O)(=O)CC[C@H](NC(=O)[C@H](N)Cc1c[nH]c2ccccc12)C(=O)N[C@@H](CC(=O)O)C(=O)N[C@@H](Cc1ccc(F)cc1)C(N)=O` [HT-70, D-Trp-Met(O2)-Asp-Phe(4-F)-NH2]: the “Agonistic Activity (%) at 10 μM” value is 35.31%. Moreover, the EC50 (commonly the concentration that produces a half-maximal response) under setting [1] came out at 11.4 µM.
Consider `C[S+]([O-])CC[C@H](NC(=O)[C@H](N)Cc1c[nH]c2ccccc12)C(=O)N[C@@H](CC(=O)OCCNc1cccc2c(O)cccc12)C(=O)N[C@@H](Cc1ccc(N=[N+]=[N-])cc1)C(N)=O` (stereo partly drawn) [HT-150, D-Trp-Met(O)-Asp(EDANS)-Phe(4-N3)-NH2], for which the “Agonistic Activity (%) at 10 μM” value worked out at 0.81%.
Turning to `COC(=O)C[C@H](NC(=O)[C@H](CC[S+](C)[O-])NC(=O)[C@H](N)Cc1c[nH]c2ccccc12)C(=O)N[C@@H](Cc1ccccc1)C(N)=O` (stereo partly drawn) [HT-20, D-Trp-Met(O)-Asp(OMe)-Phe-NH2], the “Agonistic Activity (%) at 10 μM” value was −9.73%.
As for `COC(=O)C[C@H](NC(=O)[C@H](CCS(C)(=O)=O)NC(=O)[C@H](N)Cc1c[nH]c2ccccc12)C(=O)N[C@@H](Cc1ccc([N+](=O)[O-])cc1)C(N)=O` [HT-135, D-Trp-Met(O2)-Asp(Ome)-Phe(4-NO2)-NH2], the “Agonistic Activity (%) at 10 μM” value was found to be 11.52%.
Take `COC(=O)C[C@H](NC(=O)[C@H](CCSC)NC(=O)[C@H](N)Cc1c[nH]c2ccccc12)C(=O)N[C@@H](Cc1ccc(C#N)cc1)C(N)=O` [HT-83, D-Trp-Met-Asp(Ome)-Phe(4-CN)-NH2]: the “Agonistic Activity (%) at 10 μM” value came to 1.91%.
`CCCC[C@H](NC(=O)[C@H](Cc1c[nH]c2ccccc12)N(C)C(=O)OCC1c2ccccc2-c2ccccc21)C(=O)N[C@@H](CC(=O)O)C(=O)N[C@@H](Cc1cccc(Br)c1)C(N)=O` [HT-268, Fmoc-(N-Me-Trp)-Nle-Asp-Phe(3-Br)-NH2] (Fmoc-[NMeW][Nle]D[Phe(3-Br)]-NH2): the EC50 under setting [2] was found to be 0.0013 µM.
In the case of `C[S+]([O-])CC[C@H](NC(=O)[C@H](N)Cc1c[nH]c2ccccc12)C(=O)N[C@@H](CC(=O)OCCNc1cccc2c(O)cccc12)C(=O)N[C@@H](Cc1ccc(F)cc1)C(N)=O` (stereo partly drawn) [HT-155, D-Trp-Met(O)-Asp(EDANS)-Phe(4-F)-NH2], the “Agonistic Activity (%) at 10 μM” value is listed as 0.50%.
As to `COC(=O)C[C@H](NC(=O)[C@H](CCS(C)(=O)=O)NC(=O)[C@H](N)Cc1c[nH]c2ccccc12)C(=O)N[C@@H](Cc1cc(Cl)cc(Cl)c1)C(N)=O` [HT-140, D-Trp-Met(O2)-Asp(Ome)-Phe(3,5-DiCl)-NH2], the “Agonistic Activity (%) at 10 μM” value came to 10.66%.
On to `COC(=O)C[C@H](NC(=O)[C@H](CCSC)NC(=O)[C@H](N)Cc1c[nH]c2ccccc12)C(=O)N[C@@H](Cc1cccc(Cl)c1)C(N)=O` [HT-77, D-Trp-Met-Asp(Ome)-Phe(3-Cl)-NH2], for which the “Agonistic Activity (%) at 10 μM” value was 1.83%.
Consider `COC(=O)C[C@H](NC(=O)[C@H](CCSC)NC(=O)[C@H](N)Cc1c[nH]c2ccccc12)C(=O)N[C@@H](Cc1ccccc1[N+](=O)[O-])C(N)=O` [HT-75, D-Trp-Met-Asp(Ome)-Phe(2-NO2)-NH2], for which the “Agonistic Activity (%) at 10 μM” value is listed as −0.20%.
The same measure, in the same setting: the result for `COC(=O)C[C@H](NC(=O)[C@H](CC[S+](C)[O-])NC(=O)[C@H](N)Cc1c[nH]c2ccccc12)C(=O)N[C@@H](Cc1cccc(Br)c1)C(N)=O` (stereo partly drawn) [HT-114, D-Trp-Met(O)-Asp(Ome)-Phe(3-Br)-NH2] reads −8.48%; that for `COC(=O)C[C@H](NC(=O)[C@H](CCSC)NC(=O)[C@H](N)Cc1c[nH]c2ccccc12)C(=O)N[C@@H](Cc1ccccc1F)C(N)=O` [HT-76, D-Trp-Met-Asp(Ome)-Phe(2-F)-NH2], 23.09%.
Consider `COC(=O)C[C@H](NC(=O)[C@H](CCSC)NC(=O)[C@H](N)Cc1c[nH]c2ccccc12)C(=O)N[C@@H](Cc1ccc([N+](=O)[O-])cc1)C(N)=O` [HT-84, D-Trp-Met-Asp(Ome)-Phe(4-NO2)-NH2], for which the “Agonistic Activity (%) at 10 μM” value is reported as 3.24%.
Take `COC(=O)C[C@H](NC(=O)[C@H](CC[S+](C)[O-])NC(=O)[C@H](N)Cc1c[nH]c2ccccc12)C(=O)N[C@@H](Cc1ccccc1F)C(N)=O` (stereo partly drawn) [HT-110, D-Trp-Met(O)-Asp(Ome)-Phe(2-F)-NH2]: the “Agonistic Activity (%) at 10 μM” value is given as 1.36%.
`COC(=O)C[C@H](NC(=O)[C@H](CCSC)NC(=O)[C@H](N)Cc1c[nH]c2ccccc12)C(=O)N[C@@H](Cc1ccc(Br)cc1)C(N)=O` [HT-85, D-Trp-Met-Asp(Ome)-Phe(4-Br)-NH2]: the “Agonistic Activity (%) at 10 μM” value is reported as 7.32%.
Take `COC(=O)C[C@H](NC(=O)[C@H](CCSC)NC(=O)[C@H](N)Cc1c[nH]c2ccccc12)C(=O)N[C@@H](Cc1ccc(I)cc1)C(N)=O` [HT-88, D-Trp-Met-Asp(Ome)-Phe(4-I)-NH2]: the “Agonistic Activity (%) at 10 μM” value is given as −4.64%.
For `COC(=O)C[C@H](NC(=O)[C@H](CCS(C)(=O)=O)NC(=O)[C@H](N)Cc1c[nH]c2ccccc12)C(=O)N[C@@H](Cc1ccccc1[N+](=O)[O-])C(N)=O` [HT-126, D-Trp-Met(O)-Asp(Ome)-Phe(2-NO2)-NH2], the “Agonistic Activity (%) at 10 μM” value is reported as 9.50%.
As to `CS(=O)(=O)CC[C@H](NC(=O)[C@H](N)Cc1c[nH]c2ccccc12)C(=O)N[C@@H](CC(=O)O)C(=O)N[C@@H](Cc1ccccc1)C(N)=O` [HT-17, D-Trp-Met(O2)-Asp-Phe-NH2], the “Agonistic Activity (%) at 10 μM” value was 19.12%.
Take `CSCC[C@H](NC(=O)[C@H](Cc1c[nH]c2ccccc12)NC(=O)[C@@H](C)N)C(=O)N[C@@H](CC(=O)O)C(=O)N[C@@H](Cc1cccc(Br)c1)C(=O)N[C@H](C)C(N)=O` [HT-292, D-Ala-Trp-Met-Asp-Phe(3-Br)-D-Ala-NH2] (H-[dA]WMD[Phe(3-Br)][dA]-NH2): under setting [2], the EC50 is 1.45 µM.
As for `C[S+]([O-])CC[C@H](NC(=O)[C@H](N)Cc1c[nH]c2ccccc12)C(=O)N[C@@H](CC(=O)O)C(=O)N[C@@H](Cc1ccc(N=[N+]=[N-])cc1)C(N)=O` (stereo partly drawn) [HT-48, D-Trp-Met(O)-Asp-Phe(4-N3)-NH2], the “Agonistic Activity (%) at 10 μM” value is 17.23%.
Turning to `CSCC[C@@H](NC(=O)[C@@H](CC(=O)O)NC(=O)[C@H](N)Cc1ccccc1)C(=O)N[C@H](Cc1c[nH]c2ccccc12)C(=O)O` [HT-7, D-Phe-D-Asp-D-Met-D-Trp-COOH] (H-[dF][dD][dM][dW]-OH), the EC50 (CHO-CCK cells, compound alone, bound in μM) was greater than 10 µM.
As for `C[S+]([O-])CC[C@H](NC(=O)[C@H](N)Cc1c[nH]c2ccccc12)C(=O)N[C@@H](CC(=O)O)C(=O)N[C@@H](Cc1cc(F)c(F)c(F)c1)C(N)=O` (stereo partly drawn) [HT-57, D-Trp-Met(O)-Asp-Phe(3,4,5-TriF)-NH2], the “Agonistic Activity (%) at 10 μM” value was 56.81%. Under setting [1], the EC50 is 6.79 µM.
For the compound `COC(=O)C[C@H](NC(=O)[C@H](CC[S+](C)[O-])NC(=O)[C@H](N)Cc1c[nH]c2ccccc12)C(=O)N[C@@H](Cc1ccc(C#N)cc1)C(N)=O` (stereo partly drawn) [HT-117, D-Trp-Met(O)-Asp(Ome)-Phe(4-CN)-NH2], the “Agonistic Activity (%) at 10 μM” value is listed as 9.81%.
Turning to `COC(=O)C[C@H](NC(=O)[C@H](CCS(C)(=O)=O)NC(=O)[C@H](N)Cc1c[nH]c2ccccc12)C(=O)N[C@@H](Cc1ccccc1)C(N)=O` [HT-22, D-Trp-Met(O2)-Asp(OMe)-Phe-NH2], the “Agonistic Activity (%) at 10 μM” value worked out at 0.98%.
For the compound `CS(=O)(=O)CC[C@H](NC(=O)[C@H](N)Cc1c[nH]c2ccccc12)C(=O)N[C@@H](CC(=O)O)C(=O)N[C@@H](Cc1ccc(Cl)cc1)C(N)=O` [HT-69, D-Trp-Met(O2)-Asp-Phe(4-Cl)-NH2], the “Agonistic Activity (%) at 10 μM” value is on record as 20.02%.
As for HHHHHHSSGGWKDF-NH2 [HT-286], the “% Act-Ave @ 1 nM” value (compound at 1 nM, CHO-CCK cells) was −0.40%. In addition, the “% Act-Ave @ 50 nM” value (compound at 50 nM, CHO-CCK cells) is −0.52%.
In the case of `COC(=O)C[C@H](NC(=O)[C@H](CCSC)NC(=O)[C@H](N)Cc1c[nH]c2ccccc12)C(=O)N[C@@H](Cc1ccc(N=[N+]=[N-])cc1)C(N)=O` [HT-82, D-Trp-Met-Asp(Ome)-Phe(4-N3)-NH2], the “Agonistic Activity (%) at 10 μM” value is 12.78%.
For `COC(=O)C[C@H](NC(=O)[C@H](CC[S+](C)[O-])NC(=O)[C@H](N)Cc1c[nH]c2ccccc12)C(=O)N[C@@H](Cc1cccc(I)c1)C(N)=O` (stereo partly drawn) [HT-113, D-Trp-Met(O)-Asp(Ome)-Phe(3-I)-NH2], the “Agonistic Activity (%) at 10 μM” value is listed as 6.21%.
